Assay [1] has as its system StHdh^Q111/Q111 cells. The assay is described as follows: RUSH system: GPI-SBP-mCherry trafficking from endoplasmic reticulum to Golgi and plasma membrane. The assay is classed as cell-based, mouse. The protocol:
The RUSH plasmid (Boncompain et al., 2012) is a bicistronic plasmid (SEQ ID NO: 2) allowing the expression of two parts of the system: the reticulum-specific anchor (KDEL-streptavidin), and the reporter part (GPI-SBP-mCh). The addition of biotin in the extracellular medium (40 μM) induces the unhooking of the reporter part of the anchor, thus allowing to follow the intracellular trafficking in a synchronized way within a cell population from the endoplasmic reticulum.
For striatal StHdh cells, acute treatment was performed at 10 μM for 1 hour before and during the acquisition time. For neurons within the microchambers, treatments were started at DIV2 until DIV12 every day at 1 μM in each compartment of the microfluidic device.
The inventors used the Retention Using Selective Hooks (RUSH) system to study intracellular dynamics from the ER to the plasma membrane in Huntington's disease condition (FIG. 1A). RUSH allows tracking the synchronous release of a reporter molecule from specific intracellular compartments. In the present experiment, the inventors followed the release of glycosylphosphatidylinositol (GPI)-anchored fluorescence protein mCherry, and fused to streptavidin-binding peptide (SBP) that was retained into the ER compartment by the interaction with a “hook” protein composed of the KDEL motif fused to streptavidin. In the absence of biotin, the GPI-SBP-mCherry localizes at the ER (FIG. 1A). Addition of biotin to the cells expressing GPI-SBP-mCherry and KDEL-streptavidin causes a synchronous release of the GPI-SBP-mCherry reporter from the hook which then migrates to the Golgi apparatus and later to the plasma membrane.
To study these dynamics in the context of Huntington's disease, the inventors transfected the GPI-SBP-mCherry-KDEL-streptavidin construct as shown in SEQ ID NO:2 into immortalized striatal cells from Hdh^Q111/Q111 and Hdh^Q7/Q7 mice, referred to as StHdh^Q111/Q111 and StHdh^Q7/Q7 cells respectively. They then monitored GPI-SBP-mCherry trafficking by real-time imaging for 90 minutes. To assess intracellular trafficking dynamics, they quantified the kinetics of appearance and disappearance of mCherry fluorescence in the Golgi apparatus over time (FIGS. 1B and C). Shortly after biotin addition, GPI leaves the ER and moves to the Golgi apparatus. The inventors quantified fluorescence at the Golgi and observed that in StHdh^Q7/Q7 cells, the peak fluorescence was at 16.6 minutes, whereas it was delayed to 23.6 minutes in StHdh^Q111/Q111 cells (FIG. 1B). Their observations indicate a reduced trafficking of GPI from the ER to the Golgi apparatus as well as prolonged retention of GPI in the Golgi as evidenced by a longer period of GPI fluorescence in the Golgi apparatus.

Assay [2] relates to melanoma cells. The note with it: studies of Vujic et al., 2015; cited from earlier work.
Assay [3] deals with APT1 (Homo sapiens, UniProt O75608). The note with it: read-out: IC50APT1; cited from earlier work.
Assay [4] concerns the target APT2 (Homo sapiens, UniProt O95372). The settings on record: read-out: IC50APT2; cited from earlier work.
Where [5] appears, read: StHdh^Q111/Q111 cells, inhibitor 10 μM 1 hour or siRNA gene silencing.

APT1, sequence (O75608 whole entry): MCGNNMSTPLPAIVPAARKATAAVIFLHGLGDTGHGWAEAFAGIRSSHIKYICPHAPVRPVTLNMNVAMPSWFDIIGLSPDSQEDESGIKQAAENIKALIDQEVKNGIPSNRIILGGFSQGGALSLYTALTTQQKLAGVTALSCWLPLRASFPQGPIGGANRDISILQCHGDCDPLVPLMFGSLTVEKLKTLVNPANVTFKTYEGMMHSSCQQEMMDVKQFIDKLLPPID
APT2, sequence (O95372 whole entry): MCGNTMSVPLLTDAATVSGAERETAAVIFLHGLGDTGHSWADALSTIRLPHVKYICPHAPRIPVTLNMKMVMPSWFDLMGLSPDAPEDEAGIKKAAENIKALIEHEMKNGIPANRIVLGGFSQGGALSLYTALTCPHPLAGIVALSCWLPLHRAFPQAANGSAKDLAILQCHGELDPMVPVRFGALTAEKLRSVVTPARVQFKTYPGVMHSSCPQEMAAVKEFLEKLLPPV

`COc1ccc(N2CCN(C(=O)c3cc4c(s3)-c3ccccc3S(=O)(=O)C4)CC2)cc1` [ML-349]: in assay [1] (setting [5]), the “effect on kinetics from the endoplasmic reticulum to the Golgi apparatus” value is given as “no effect” and the “effect on retention in the Golgi” value is reported as “no effect”. Besides, the “effect on melanoma cells” value in assay [2] is “no biologically significant effect”.
In the case of `CCCCCCCCCC[C@@H]1C(=O)O[C@H]1CCc1ccc(OC)c(OC)c1` [Palmostatin B], the IC50 in assay [3] was 5.4 nM; in assay [4] it was 37.7 nM. Further, in assay [1] (StHdh^Q111/Q111 cells treated 1 hour with 10 μM, without treatment 23.2-23.3 min, StHdh^Q7/Q7 16.6 min), the “time after biotin addition for the appearance of the fluorescence peak in the Golgi” value is listed as 18 min. Moreover, the “time for fluorescence to leave the Golgi apparatus (retention time in the Golgi)” value in assay [1] (StHdh^Q111/Q111 cells treated 1 hour with 10 μM, without treatment 24-25.4 min, wild-type cells 15.1 min) was 21.3 min.
